# Assay results: PMC5613772 (Biochemistry and Biophysics Reports, 2016)
# Tests used:
# [1] = molecular target: T1, L. donovani Gcs full length (GcsF, LdGcs, Gcs) (Leishmania donovani, UniProt Q67BG3); test: tryptophan fluorescence quenching; format: binding
# T1 sequence (Q67BG3 1-687): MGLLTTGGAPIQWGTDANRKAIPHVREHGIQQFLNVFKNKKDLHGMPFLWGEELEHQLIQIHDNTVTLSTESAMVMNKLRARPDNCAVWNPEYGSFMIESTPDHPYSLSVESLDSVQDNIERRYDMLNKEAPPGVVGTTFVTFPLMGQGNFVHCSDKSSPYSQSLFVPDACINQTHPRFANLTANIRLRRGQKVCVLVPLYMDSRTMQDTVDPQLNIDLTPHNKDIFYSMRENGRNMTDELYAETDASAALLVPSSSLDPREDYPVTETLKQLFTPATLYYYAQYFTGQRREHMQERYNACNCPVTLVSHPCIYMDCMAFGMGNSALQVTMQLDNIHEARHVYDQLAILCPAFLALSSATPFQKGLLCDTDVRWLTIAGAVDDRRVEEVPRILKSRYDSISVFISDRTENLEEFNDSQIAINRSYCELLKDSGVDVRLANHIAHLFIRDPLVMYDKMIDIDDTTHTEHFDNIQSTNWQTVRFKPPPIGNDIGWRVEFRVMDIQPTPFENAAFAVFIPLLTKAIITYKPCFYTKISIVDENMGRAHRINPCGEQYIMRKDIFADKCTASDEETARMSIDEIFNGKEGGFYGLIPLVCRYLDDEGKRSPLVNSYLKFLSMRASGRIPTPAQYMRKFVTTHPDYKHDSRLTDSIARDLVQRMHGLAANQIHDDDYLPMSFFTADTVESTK
# [2] = molecular target: L. donovani Gcs full length (GcsF, LdGcs, Gcs) (Leishmania donovani, UniProt Q67BG3, E55A); test: biochemical
# [3] = molecular target: L. donovani Gcs full length (GcsF, LdGcs, Gcs) (Leishmania donovani, UniProt Q67BG3, R498A); test: biochemical
# [4] = molecular target: L. donovani Gcs full length (GcsF, LdGcs, Gcs) (Leishmania donovani, UniProt Q67BG3, E99A); test: biochemical
# [5] = molecular target: L. donovani Gcs full length (GcsF, LdGcs, Gcs) (Leishmania donovani, UniProt Q67BG3, E92A); test: biochemical
# GcsC = GcsC (Leishmania donovani, UniProt Q67BG3); conditions: value said to be in Table 2 but not printed there
SMILES,Kd [1] [µM],Kd [2] [µM],Kd [3] [µM],Kd [4] [µM],Kd [5] [µM],ITC or tryptophan fluorescence quenching (not told) (GcsC)
N[C@@H](CCC(=O)O)C(=O)O [L-Glutamate],93.7 ± 1.8,793 ± 0.182,890 ± 0.167,666 ± 0.3,107 ± 0.16,
Nc1ncnc2c1ncn2[C@@H]1O[C@H](COP(=O)(O)OP(=O)(O)OP(=O)(O)O)[C@@H](O)[C@H]1O [ATP],2.7 ± 0.3,2.5 ± 1,1550 ± 238,5.8 ± 0.3,3235 ± 0.937,GcsT and C-terminal constructs also show comparable binding with ATP
N[C@@H](CS)C(=O)O [L-Cysteine],177 ± 2.6,95 ± 2.1,,,115 ± 0.35,
